Data as given in publication PMC12056667 (Chemical Science, 2025).
Where two headings read alike, the source gives them in different places.

Columns and labels:
Tet(X4) [1] = target: T1, Tet(X4) (Escherichia coli, UniProt A0A3T0V9Y5); experiment: biochemical
Protocol: We then tested the binding of reported type 1 TDase inhibitors to Tet(X4) (Fig. 3f, ESI Fig. S17 ^†).[33,38,39] […] We also developed a complementary endpoint activity assay where the turnover of tigecycline by Tet(X4) in a 96-well plate was quenched by addition of 1%v/v formic acid and analysed chromatographically. The peak integrals of tigecycline and its hydroxylated degradation product at 254 nm following UPLC analysis were measured to determine turnover (Fig. 5a).
[…] A 3-fold, 10-point dilution series of the substrates and inhibitors was made in DMSO with a top concentration of 10 mM, unless otherwise stated, and transferred to the enzyme solution using a CyBi-Well liquid-handling robot (CyBio), 1 μL per well. On each plate, a column of no enzyme negative controls and no inhibitor (DMSO only) positive controls were included. The plate was incubated at 30 °C for 15 min. A solution containing 100 mM TAPS (pH 8.5), 40 μM tigecycline and 200 μM NADPH was then dispensed, with 49 μL per well. The plate was incubated at 30 °C for 20 min at 600 rpm. 10 μL of 10%v/v formic acid solution was then dispensed into all wells. Samples were analysed using an ACQUITY H-Class PLUS UPLC instrument (Waters) equipped with a pre-equilibrated ACQUITY BEH C18 column ([…], […], Waters) using a gradient of 1–50%v/v acetonitrile with 0.1%v/v formic acid in water with 0.1%v/v formic acid over 1.83 minutes at a flow rate of 0.5 mL min^−1. Instrument control and data processing were performed using MassLynx V4.1 software. The peaks representing tigecycline and 11a-hydroxy-tigecycline were integrated, used to calculate % conversion and then normalised between positive and negative controls. The normalised % response was plotted as a function of log10[Inhibitor], and the IC50 determined as described above.

Tet(X4) [2] = target: T1, Tet(X4); experiment: FP competitive displacement of probe 6; format: binding; conditions: for IC50: 25 nM 6, 40 nM Tet(X4), 5 mM MgCl2, 1 μM FAD, 100 mM Tris pH 7.0, 0.01% Triton X-100; for displacement of probe 6 / competitive binding (in words): up to a maximum concentration of 100 μM
Protocol: A 2× solution containing 80 nM Tet(X4), 2 μM FAD and 10 mM MgCl2 in the assay buffer was dispensed into the first 22 columns of a 384-well black, non-binding microtiter plate (Greiner Bio-One), 12.5 μL per well, using a microplate reagent dispenser. A solution of 2 μM FAD and 10 mM MgCl2 in the assay buffer was dispensed into the remaining columns to serve as a no enzyme control. A 3-fold, 10-point dilution series of substrates and inhibitors was made in DMSO in a V-bottom 96-well plate (Greiner Bio-One) with a highest concentration of 5 mM or 0.5 mM. Into one column was added DMSO with no inhibitor or substrate, to serve as a positive control. Tigecycline was included as a reference on every plate to ensure reproducibility. 0.5 μL of each dilution was transferred in quadruplicate to the 384-well plate containing enzyme solution using a CyBi-Well liquid-handling robot (CyBio). A solution of 50 nM 6 in the assay buffer was then dispensed, with 12.5 μL per well. The plate was briefly centrifuged (1000 rpm), then incubated at ambient temperature for 30 min prior to measuring the FP. Data points were normalised between the positive and negative controls. Normalised % response was plotted as a function of log10([Inhibitor]), and the IC50^app was determined by fitting the data to the equation: Y = Bottom + (top-bottom)/(1 + 10^Log(IC50) − X) × HillSlope in GraphPad Prism 9.4.1, where Y = % response and X = log10([Inhibitor]). Wells with unusual fluorescence intensities were manually identified and removed from the analysis. […]

Tet(X4) [3] = target: T1, Tet(X4); experiment: Absorbance activity assay (tigecycline turnover, A400); format: biochemical; conditions: for IC50: 25 μM tigecycline, 50 nM Tet(X4), 250 μM NADPH, 5 mM MgCl2, 1 μM FAD, 100 mM TAPS pH 8.5, read-out: IC50, Absorbance assay
Excerpt: We then tested the binding of reported type 1 TDase inhibitors to Tet(X4) (Fig. 3f, ESI Fig. S17 ^†).[33,38,39] […] These compounds gave similar apparent IC50^app values, in accord with trends in IC50 measurements performed by Markley et al.[33] […] We also developed a complementary endpoint activity assay where the turnover of tigecycline by Tet(X4) in a 96-well plate was quenched by addition of 1%v/v formic acid and analysed chromatographically. The peak integrals of tigecycline and its hydroxylated degradation product at 254 nm following UPLC analysis were measured to determine turnover (Fig. 5a). As this method separates components by chromatography, it enables IC50 measurements independent of potential interference from UV-active inhibitors (Fig. 5b). […] The apparent synergy of AZT with tetracyclines against whole cells expressing Tet(X4)[40] is therefore interesting and may derive from the proposed ability of AZT to interfere with DNA synthesis in bacteria,[40,53] or other unidentified mechanisms. […] Note, however, that plumbagin and 2-MNQ are naphthoquinones, which are well-characterised redox-active pan-assay interference (PAINS) moieties.[54]
233 Absorbance Activity Assays
234 A solution containing 100 mM TAPS (pH 8.5), 2 µM FAD, 10 mM MgCl2 and 100 nM Tet(X4) was
235 dispensed into a 384 well µClear plate (Greiner Bio-One), 25 µL per well, using a microplate reagent
236 dispenser. A 3-fold, 10-point dilution series of the substrates and inhibitors was made in DMSO with
237 the highest concentration of 50 mM, unless otherwise stated, and transferred to the enzyme solution in
238 technical quadruplicate using a CyBi-Well (CyBio) liquid-handling robot (1 µL per well). On each plate,
239 a column of no enzyme negative controls and no inhibitor (DMSO only) positive controls were
240 included. The plate was briefly centrifuged (1000 rpm), then incubated (ambient temperature,15 min).
241 A solution containing 100 mM TAPS (pH 8.5), 50 µM tigecycline and 500 µM NADPH was then
242 dispensed, with 25 µL per well. The plate was briefly centrifuged (1000 rpm), then transferred to a
243 CLARIOstar Plus Microplate reader. The absorbance was monitored at wavelength […] over the
244 course of 2 hours (23 flashes / cycle, 180 s cycle time, 41 data points, 25 ° C). The initial rate was
245 calculated by measuring the rate of change of A400 during the initial linear regime. Initial rates were
246 normalised between positive and negative controls. The normalised % response was plotted as a
247 function of log10([Inhibitor]) in molar units, and the IC50 was determined as above. […]

[4] = system: E. coli TOP10 containing plasmid pBAD-TOPO-Tet(X4); experiment: Broth microdilution MIC and checkerboard assay; format: cell-based, Escherichia coli; conditions: for MIC: Escherichia coli; for Combination (antibiotic/inhibitor) MIC: inhibitor: inhibitor in combination with tigecycline; for Combination (antibiotic/inhibitor) MIC: inhibitor / Combination (antibiotic/inhibitor) MIC: antibiotic: lowest FICI; for Combination (antibiotic/inhibitor) MIC: antibiotic: tigecycline in combination with the inhibitor; for FICI / Outcome: with tigecycline
Excerpt: Tet(X4) was sub-cloned from the Tet(X4) pET28b-(+) expression vector via TOPO cloning. The insert was amplified using the taq polymerase with the forward primer 5′- […]-3′ and the reverse primer 5′- […]-3’. Following PCR purification (Thermo Fisher Scientific), the A-tailed PCR product was ligated into the pBAD-TOPO vector using a TOPO cloning kit (Invitrogen) according to the manufacturer's protocol. Following amplification in E. coli NEB5α cells (NEBiolabs), the fidelity of the insert was confirmed by Sanger sequencing (Eurofins). For microbiological experiments, E. coli TOP10 cells were used as the recipient strain. Cells were plated on Mueller-Hinton agar (MHA) plates containing ampicillin at 100 μg mL^−1. The introduction of pBAD-TOPO-Tet(X4) was confirmed by colony PCR. Strains were stored in a freezer at −80 °C in cryopreservation beads.
MIC tests and checkerboard assays were performed in U-bottom, 96-well microtiter plates using a modified broth microdilution protocol following CLSI guidelines. Cation-adjusted Mueller-Hinton Broth (CAMHB) was prepared fresh on the day of testing.[74] […] Bacterial colonies were selected from an overnight culture on MHA plates (supplemented with 0.2%w/vL-arabinose for E. coli TOP10 containing pBAD-TOPO-Tet(X4)) and were suspended in 0.9% saline solution to achieve a 0.5 McFarland standard. A 100 μL aliquot of this suspension was then diluted into 9.9 mL of CAMHB to yield approximately 1.5 × 10^6 cfu mL^−1. 50 μL of the suspension was then added to each well of a microtiter plates. Plates were incubated at 37 °C for 18 h. At least 2 replicates were conducted for each combination. E. coli TOP10 + pBAD-TOPO-Tet(X4) cells were grown in the absence and presence of 0.2%w/vL-arabinose. Analysis of the MIC and checkerboard results were carried out by visual inspection of growth, with and without resazurin dye, an oxidation–reduction indicator.[75] As a measure of synergy, fractional inhibitory concentration index (FICI) was calculated as FICA + FICB, where FICA and FICB are the MICcombination/MICalone for each agent, respectively.[76] Results were interpreted as follows: synergistic (<0.5), indifferent (1.0–4.0) or antagonistic (>4.0).[64] In cases where the MIC exceeded or was below the measured range, the borderline value was taken to calculate the FIC index.

[5] = 20 μM tigecycline, 50 nM Tet(X4), 100 μM NADPH, 5 mM MgCl2, 1 μM FAD, 100 mM TAPS pH 8.5, read-out: IC50, UPLC assay
[6] = IC50app, Tet(X4) (Polarization)

| Structure (SMILES) | IC50 (Tet(X4) [1]; [5]) [µM] | IC50 (Tet(X4) [2]; [6]) [µM] | also measured |
| --- | --- | --- | --- |
| COC1=CC(=O)c2ccccc2C1=O [2-Methoxy-1,4-naphthoquinone] | > 100 |  | inhibition in the UPLC assay (in words) (Tet(X4) [1]; AZT up to 100 μM): weak; IC50 (Tet(X4) [2]; IC50app, FP assay): > 100 µM; displacement of probe 6 / competitive binding (in words) (Tet(X4) [2]): minimal competitive binding; IC50 (Tet(X4) [3]): 421 ± 50 µM; inhibition in the absorbance assay (in words) (Tet(X4) [3]; AZT up to 1 mM): weak |
| Cc1c2c(c(O)c3c(O)c(Br)ccc13)C(=O)[C@@]1(O)C(=O)C(C(N)=O)=C(O)[C@@H](N(C)C)[C@@H]1C2 [9-Bromo-anhydrotetracycline] | 2.7 ± 0.5 |  | IC50 (Tet(X4) [2]; read-out: IC50app, FP assay): 0.0404 ± 0.0105 µM; displacement of probe 6 / competitive binding (in words) (Tet(X4) [2]): clear dose-dependent displacement; IC50 (Tet(X4) [3]): 4.5 ± 0.6 µM |
| CN(C)CCCN1c2ccccc2Sc2ccc(Cl)cc21 [Chlorpromazine] | 110 ± 19 | > 100 |  |
| O=c1c2ccccc2[se]n1-c1ccccc1 [Ebselen] | 4.7 ± 1.5 | 40.9 ± 11.4 |  |
| Cn1cc(C2=C(c3cn(C4CCN(Cc5ccccn5)CC4)c4ccccc34)C(=O)NC2=O)c2ccccc21 [Enzastaurin] | > 100 | 27.8 ± 1.5 |  |
| COc1ccc2c(c1)N(C[C@H](C)CN(C)C)c1ccccc1S2 [Levomepromazine] | > 100 | > 100 |  |
| C=CC(=O)Nc1cccc(Oc2nc(Nc3ccc(N4CCN(C)CC4)cc3)nc3ccsc23)c1 [Olmutinib] | > 100 | 17.2 ± 3.4 |  |
| CC(CN(C)C)CN1c2ccccc2S(=O)(=O)c2ccccc21 (stereo not shown) [Oxomemazine] | > 100 | > 100 |  |
| c1ccc2c(c1)Nc1ccccc1S2 [Phenothiazine] | 128 ± 13 | > 100 |  |
| CCCCC1C(=O)N(c2ccccc2)N(c2ccccc2)C1=O [Phenylbutazone] | > 100 | > 100 |  |
| CN(C)CCCN1c2ccccc2Sc2ccccc21 [Promazine] | > 100 | > 100 |  |
| CCN(CC)CCNC(=O)c1c(C)[nH]c(/C=C2\C(=O)Nc3ccc(F)cc32)c1C [Sunitinib] |  | 45.6 ± 4 | IC50 (Tet(X4) [1]; IC50, UPLC assay, 20 μM tigecycline, 50 nM Tet(X4), 100 μM NADPH, 5 mM MgCl2, 1 μM FAD, 100 mM TAPS pH 8.5): > 100 µM |
| COc1cc(C)c2c(Oc3cccc(C(F)(F)F)c3)c(OC)cc(NC(C)CCCN)c2n1 (stereo not shown) [Tafenoquine] | 76 ± 2.4 | 94.9 ± 64.8 | MIC ([4]; read-out: Tet(X) Inhibitor MIC, alone, without L-arabinose induction): 16 µg/mL; MIC ([4]; read-out: Tet(X) inhibitor MIC, alone, induced with 0.2%w/v L-arabinose): 16 to 64 µg/mL; Tet(X) inhibitor MIC ([4]; alone, induced with 0.2%w/v L-arabinose): 16 µg/mL; reduction of the tigecycline MIC ([4]; at high concentrations of inhibitor, 0.2%w/v L-arabinose): 2–4 fold; Combination (antibiotic/inhibitor) MIC: inhibitor ([4]; 0.2%w/v L-arabinose): 4 µg/mL; Combination (antibiotic/inhibitor) MIC: inhibitor ([4]; without L-arabinose): 16 µg/mL; Combination (antibiotic/inhibitor) MIC: antibiotic ([4]; 0.2%w/v L-arabinose): 2 µg/mL; Combination (antibiotic/inhibitor) MIC: antibiotic ([4]; without L-arabinose): 0.25 µg/mL; FICI ([4]; 0.2%w/v L-arabinose): 0.8; Outcome ([4]; 0.2%w/v L-arabinose): Indifferent (indifferent (0.5–4.0)); FICI ([4]; without L-arabinose): 2; Outcome ([4]; without L-arabinose): indifferent (indifferent (0.5-4.0)) |
| CN(C)CCCN1c2ccccc2Sc2ccc(C(F)(F)F)cc21 [Triflupromazine] |  | > 100 | IC50 (Tet(X4) [1]; IC50, UPLC assay): 102 ± 29 µM |
